Measured values: patent USRE39682E1, “Farnesyl derivatives and pharmaceutical compositions containing them” (Ramot at Tel Aviv University Ltd., priority 1993, dated 2007)

Legend:
[1] = system: Ha-ras-transformed rat1 cells; test: Growth of ras-transformed rat1 cells (cell counting); format: cell-based, rat; settings: for EC50: Rattus norvegicus, 168 h, day 7 of drug treatment, estimated from dose response curves, read-out: Inhibition of rab-transformed rat1 cell growth EC50
Excerpt: (§1) The cell lines employed were rat1, -EJ, which are rat1 cells stably expressing Val- 12 activated human Ha-ras gene (Land H. et al., Nature, 304, 596-602, (1983)); V-raf-3T3, which are 3T3 cells stably expressing the V-raf gene (Xu, N., et al., Proc. Natl. Acad. Sci., 90, 6741-6745); RB-22, which are 3T3 cells stably expressing the rat Erb-B2 gene (Peles, et al., EMBO J., 10, 2077-2086 (1991)) CO6O cells (SV40-CHO), which are CHE cells stably expressing the SV-40 T-antigen gene (Lavi, Proc. Natl. Acad. Sci., 78, 6144-6148 (1981)); human endometrial carcinoma cell line HEC1A, which are cells that express activated K-ras (Enomoto T., Cancer Res., 50, 6139-6145; mouse B16F10 melanoma cells, rat pheochromocytoma PC12 cells, […] cells CHE and COS cells.
(§2) HEC1A, V-raf-3T3 and SV40-CHE cells were grown in Dulbecco's modified Eagle medium (DMEM) containing 10% fetal calf serum (FCS), 4 mM L-glutamine, 10 μg/ml streptomycin and 10 U/ml penicillin. Rat1 and -EJ cells were grown in the same medium except that it was supplemented with 12.5 U/ml nyostatin. RB-22 cells were grown in modified DMEM (1 mM sodium pyruvate, 20 mM sodium bicarbonate)/10% FCS containing 4 mM L-glutamine, […] streptomycin, 10 U/ml penicillin. PC-12 cells were grown in DMEM 15% FCS/5% horse serum and the above noted antibiotics.
HEC1A cells were plated in 24 well plates at a density of 5×10^3 cells per well and fed with 1 ml of medium. The cells were grown at 37° C. in a humidified atmosphere of 95%/5% air/CO2. All other cell types employed were plated in 24 well plates at a density of 2×10^3 cells per well and fed with the appropriate medium.
Cultures were treated with farnesyl derivatives or with solvent either 3 hrs following plating or one day after plating as indicated. […] Control cultures received 0.1% DMSO only. Cultures were fed on days 6, 7 and 9 of the experiment with the drugs or with solvent-containing media.
Cells were counted following 3, 7 and 10 days of beginning of treatments with drugs. For counting, cells were detached from plates with trypsin/EDTA, and collected by a low speed spin in the presence of DMEM/10% FCS. The pelleted cells were resuspended in a small volume of DMEM/10% FCS and counted under the microscope. Viability of cells was estimated by staining with (3-(4,5-dimethylthiosol-2-yl)-2,5-diphenyltetrazolium bromide (MTT) and microscopic examination of the stained and unstained cells, or spectrophotometric estimation (OD490, 590) of the total stain in each well. Non viable cells were estimated by the trypan blue exclusion method.
Cells were plated at a density 2×10^3/well and received either solvent or drugs one day later. Following 3, 7, or 10 days of the drugs-treatment as described above, cells were collected and the number of cells in each well was estimated by direct counting. […] The effect was apparent after a delay of at least three days. About 40-60% inhibition of cell growth was induced either by FTA or by FTS observed on days 7 and 10 of the treatment.

[2] = system: SV-40 T-antigen transformed CHO cells; test: Growth of T-antigen transformed cells; format: cell-based; settings: 25 μM
Excerpt: as §1
as §2, with “PC-12 cells were grown in DMEM 15% FCS/5% horse serum and the above noted antibiotics.” left out
(§3) The potent PPMTase inhibitor FTS was used to examine selectivity of the drugs towards ras-dependent growth-signaling pathways. […] Cells were counted on day 5 of the experiment.

C57 black mice [3] = settings: mouse, in vivo
Procedure: (§4) Toxicity tests in intact animals were performed with C57 black and with bulb-C mice.
(§5) Four groups, each comprising 9 mice, were used. Animals of group one received 100 μl s.c. injections of 150 μM FTS in salient solution containing 1% DMSO (0.21 mg drug/kg body weight). The drug was injected every 3 days for 2 weeks. Group two, which served as controls, received the solvent/saline solution for the same period of time.

ras proteins = test: Methylation of immunoprecipitated ras proteins in intact ras-transformed rat1 cells; format: cell-based, rat; settings: 100 μM, FIG. 4
Excerpt: HEC1A, rail, ras-transformed rail and B16F10 melanoma cells were also used for metabolic labelling of endogenous proteins with 100-300 μCi/ml [methyl-^3H]methionine which was also indicative of PPMTase activity. Metabolic labelling procedures were as detailed elsewhere (Hakiai et al., supra. (1991); Lenner et al., supra. (1992)), and immunoprecipitation of ras with Y13-159 Ab were as detailed by Clarke et al. (Proc. Natl. Acad. Sci. USA, 85, 4643-4647 (1988)).
While the above Table II determines the PPMTase activity by assaying the methylation of a synthetic substrate, FIG. 3 determines this activity by methylation of various endogenous ras-like prenylated GTP-binding proteins present in intact HEC1A, ras-transformed rat1 and melanoma cells, with and without 100 μM of FTA or FTS. […] Use of [α-P^32]

[4] = system: Erb-B2 transformed 3T3 cells (RB-22); test: Growth of Erb-B2 transformed cells; format: cell-based; settings: 25 μM
Excerpt: as §1
as §2, with “PC-12 cells were grown in DMEM 15% FCS/5% horse serum and the above noted antibiotics.” left out
as §3

C57 black mice [5] = test: In vivo toxicity, repeated s.c. or i.p. injection; settings: 0.21 mg/kg s.c. or i.p. every 3 days for 2 weeks
Procedure: as §4, §5

HEC1A cells = test: Transformed phenotype (multi-layered clumps) of HEC1A cells; format: cell-based, human
Excerpt: HEC1A cells also grow in multi-layered clumps (FIG. 10A).

[6] = system: Rat1 cells stimulated with EGF or bFGF; test: Mitogenic effect of EGF and bFGF in Rat1 cells; format: cell-based, rat; settings: 25 μM; for Number of cells (% of control): day 5
Procedure: The potent […] inhibitor FTS was used to examine selectivity of the drugs towards ras-dependent growth-signaling pathways. In these experiments cells transformed by Erb-B2, that acts upstream of ras in the ras pathway, and cells transformed by V-raf or by T-antigen, that act independently of ras, were studied. The cells were placed at a density of 2×10^3 cells/well and received on the day of plating either solvent (controls) or 25 μM FTS. Cells were counted on day 5 of the experiment. […] At this concentration, however, no effects of FTS on the growth of V-tar transformed or of T-antigen-transformed cells were observed. The results in Table VI also indicate that the mitogenic effect of bFGF and EGF in Rat1 cells is inhibited by FTS.

SMILES	EC50 [1] [µM]	drug concentration of maximum inhibition of cell growth ([1]; days 7 and 10 of treatment) [µM]	effect on growth of T-antigen-transformed cells [2]	Number of cells (% of control) ([2]; Y-antigen transformed CHO, day 5)	toxicity to C57 mice (C57 black mice [3])	inhibition of methylation of ras proteins (ras proteins)	effect on growth of Erb-B2-transformed cells [4]	Number of cells (% of control) ([4]; Brb-B2 transformed 3T3, day 5)	deaths out of the 18 drug treated animals (C57 black mice [5])	effect on multi-layered clumps formation (HEC1A cells; 10 μM, FIG. 10B)	effect on multi-layered clumps formation (HEC1A cells; 50 μM, FIG. 10C)	effect on the mitogenic effect of bFGF and EGF in Rat1 cells [6]	Number of cells (% of control) ([6]; Ras1 + 10 mg/ml ECP)	Number of cells (% of control) ([6]; Ras1 + 50 mg/ml bPCP)	active at concentrations times lower than those of FTA [1] [times]	Number of cells (% of control) ([1]; Hs-cis-transformed rat1, 25 μM, day 5)	inhibition of ras-transformed rat1 cell-growth ([1]; drugs on the very same day of plating)
CC(C)=CCC/C(C)=C/CC/C(C)=C/CSCC(=O)O [FTA, S-trans, trans-farnesylthioacetic acid, reference compound]	25 to 50	50	–	–	–	–	–	–	–	–	–	–	–	–	–	–	–
CC(C)=CCC/C(C)=C/CC/C(C)=C/CSc1ccccc1C(=O)O [FTS, (3,7,11-trimethyl-dodeca-2,6,10-trienyl)-2-thiobenzoic acid]	5 to 10	–	no effects	99 ± 9 % of control	not toxic	inhibits	sufficient to inhibit growth	36 % of control	one	significant reversal of the multi-layered clumps formation	significant reversal of the multi-layered clumps formation	inhibited	40 ± 5 % of control	42 ± 3 % of control	10	52 ± 4 % of control	observed already after 3 days in culture
